For one experiment, the target named is ER (Homo sapiens (Human), UniProt P03372). Put plainly: In-cell western blot analysis of relative ER percentage (Compounds B1-B278). The experiment is classed as cell-based. The following applies: ER degradation, 16 hours, read-out: ICW DC50. Put shortly:
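Cells seeded at 40,000 or 10,000 cells/well and treated with compound (final 0.5% DMSO) for 16 h, then formaldehyde-fixed, Triton-permeabilized and co-stained for ER and GAPDH with 680/800 secondaries; LI-COR plate read. ER level expressed relative to untreated/DMSO-treated wells set at 100%.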

A short description of experiment [1]: Cell growth assay (WST-8) (Compounds B1-B278). The experiment is classed as cell-based. The following applies: 96 h; T47D cell line; WST-8, 4 days; read-out: Cell Growth Inhibition in T47D cell line IC50. Put shortly: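 Cells seeded at 1500/well overnight, treated one day later with compound doses for 4 days, then 10% WST-8 added for 2.5 h at 37° C in CO2. Absorbance at 450 nm, expressed relative to vehicle control over three independent repeats.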

ER, sequence (P03372 whole entry): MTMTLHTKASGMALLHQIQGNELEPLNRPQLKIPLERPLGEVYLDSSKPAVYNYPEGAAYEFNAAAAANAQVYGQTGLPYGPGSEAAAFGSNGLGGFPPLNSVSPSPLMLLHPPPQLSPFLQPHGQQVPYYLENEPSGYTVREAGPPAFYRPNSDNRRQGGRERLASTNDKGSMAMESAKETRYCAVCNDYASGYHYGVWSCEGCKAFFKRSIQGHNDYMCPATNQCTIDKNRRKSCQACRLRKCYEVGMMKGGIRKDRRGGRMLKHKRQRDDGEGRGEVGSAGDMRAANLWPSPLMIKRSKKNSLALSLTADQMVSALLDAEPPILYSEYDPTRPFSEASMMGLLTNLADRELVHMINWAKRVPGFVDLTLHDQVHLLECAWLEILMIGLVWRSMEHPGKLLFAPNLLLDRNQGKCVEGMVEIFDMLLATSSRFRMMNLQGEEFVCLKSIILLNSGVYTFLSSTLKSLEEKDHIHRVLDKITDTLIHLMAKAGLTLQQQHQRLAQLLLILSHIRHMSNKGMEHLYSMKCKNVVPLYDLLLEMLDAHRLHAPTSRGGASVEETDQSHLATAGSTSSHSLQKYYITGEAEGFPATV

In the case of `C[C@@H]1Cc2c([nH]c3ccccc23)[C@@H](c2cnc(N3CCC4(CCC(CN5CCN6c7ccc8c(c7OC[C@H]6C5)CN(C5CCC(=O)NC5=O)C8=O)CC4)CC3)nc2)N1CC(C)(C)F` (stereo partly drawn) [Compound B162, 3-((R)-7-((3-(5-((1R,3R)-2-(2-fluoro-2-methylpropyl)-3-methyl-2,3,4,9-tetrahydro-1H-pyrido[3,4-b]indol-1-yl)pyrimidin-2-yl)-3-azaspiro[5.5]undecan-9-yl)methyl)-1-oxo-1,3,5,5a,6,7,8,9-octahydro-2H-pyrazino[1′,2′:4,5][1,4]oxazino[2,3-e]isoindol-2-yl)piperidine-2,6-dione], the DC50 – broadly, the concentration giving 50% degradation – on ER is above 100 nM. For the same molecule, in experiment [1], the IC50 (usually the concentration needed to halve the response being measured) was above 10 nM.

For the molecule `C[C@@H]1Cc2c([nH]c3ccccc23)[C@@H](c2cnc(N3CCC4(CCC(N5CCN6c7ccc8c(c7OC[C@H]6C5)CN(C5CCC(=O)NC5=O)C8=O)CC4)CC3)nc2)N1CC(F)F` (stereo partly drawn) [Compound B163, 3-((R)-7-(3-(5-((1R,3R)-2-(2,2-difluoroethyl)-3-methyl-2,3,4,9-tetrahydro-1H-pyrido[3,4-b]indol-1-yl)pyrimidin-2-yl)-3-azaspiro[5.5]undecan-9-yl)-1-oxo-1,3,5,5a,6,7,8,9-octahydro-2H-pyrazino[1′,2′:4,5][1,4]oxazino[2,3-e]isoindol-2-yl)piperidine-2,6-dione], on ER, the DC50 is above 100 nM. Also, the IC50 in experiment [1] was above 10 nM.

As to `C[C@@H]1Cc2c([nH]c3ccccc23)[C@@H](c2cnc(N3CCC4(CCC(N5CCN6c7ccc8c(c7OC[C@H]6C5)CN(C5CCC(=O)NC5=O)C8=O)CC4)CC3)nc2)N1CC(C)(C)F` (stereo partly drawn) [Compound B164, 3-((R)-7-(3-(5-((1R,3R)-2-(2-fluoro-2-methylpropyl)-3-methyl-2,3,4,9-tetrahydro-1H-pyrido[3,4-b]indol-1-yl)pyrimidin-2-yl)-3-azaspiro[5.5]undecan-9-yl)-1-oxo-1,3,5,5a,6,7,8,9-octahydro-2H-pyrazino[1′,2′:4,5][1,4]oxazino[2,3-e]isoindol-2-yl)piperidine-2,6-dione], on ER, the half-maximal degradation concentration (DC50) is above 100 nM. Moreover, the IC50 in experiment [1] is 1 to 10 nM.

As for `C[C@@H]1Cc2c([nH]c3ccccc23)[C@@H](c2cnc(N3CCC4(CC3)CC(N3CCN5c6ccc7c(c6OC[C@H]5C3)CN(C3CCC(=O)NC3=O)C7=O)CO4)nc2)N1CC(C)(C)F` (stereo partly drawn) [Compound B165, 3-((5aR)-7-(8-(5-((1R,3R)-2-(2-fluoro-2-methylpropyl)-3-methyl-2,3,4,9-tetrahydro-1H-pyrido[3,4-b]indol-1-yl)pyrimidin-2-yl)-1-oxa-8-azaspiro[4.5]decan-3-yl)-1-oxo-1,3,5,5a,6,7,8,9-octahydro-2H-pyrazino[1′,2′:4,5][1,4]oxazino[2,3-e]isoindol-2-yl)piperidine-2,6-dione], the DC50 at ER fell in the range of 10 to 100 nM. In experiment [1], the IC50 was 1 to 10 nM.

Regarding `C[C@@H]1Cc2c([nH]c3ccccc23)[C@@H](c2cnc(N3CCC4(CC3)CC(N3CCN5c6ccc7c(c6OC[C@H]5C3)CN(C3CCC(=O)NC3=O)C7=O)CO4)nc2)N1CC(F)F` (stereo partly drawn) [Compound B166, 3-((5aR)-7-(8-(5-((1R,3R)-2-(2,2-difluoroethyl)-3-methyl-2,3,4,9-tetrahydro-1H-pyrido[3,4-b]indol-1-yl)pyrimidin-2-yl)-1-oxa-8-azaspiro[4.5]dccan-3-yl)-1-oxo-1,3,5,5a,6,7,8,9-octahydro-2H-pyrazino[1′,2′:4,5][1,4]oxazino[2,3-e]isoindol-2-yl)piperidine-2,6-dione], the DC50 at ER was 10 to 100 nM. Besides, the IC50 in experiment [1] lay within 1 to 10 nM.

For the molecule `C[C@@H]1Cc2c([nH]c3ccccc23)[C@@H](c2cnc(N3CC4(CCC(CN5Cc6cc7c(cc6C5)C(=O)N(C5CCC(=O)NC5=O)C7=O)CC4)C3)nc2)N1CC(F)(F)CO` (stereo partly drawn) [Compound B167, 6-((2-(5-((1R,3R)-2-(2,2-difluoro-3-hydroxypropyl)-3-methyl-2,3,4,9-tetrahydro-1H-pyrido[3,4-b]indol-1-yl)pyrimidin-2-yl)-2-azaspiro[3.5]nonan-7-yl)methyl)-2-(2,6-dioxopiperidin-3-yl)-6,7-dihydropyrrolo[3,4-f]isoindole-1,3(2H,5H)-dione], at ER, the DC50 was above 100 nM. Besides, the IC50 in experiment [1] is above 10 nM.

Consider `C[C@@H]1Cc2c([nH]c3ccccc23)[C@@H](c2cnc(N3CCC4(CC3)CC(CN3CCN5c6ccc7c(c6OC[C@H]5C3)CN(C3CCC(=O)NC3=O)C7=O)CO4)nc2)N1CC(C)(C)F` (stereo partly drawn) [Compound B168, 3-((5aR)-7-((8-(5-((1R,3R)-2-(2-fluoro-2-methylpropyl)-3-methyl-2,3,4,9-tetrahydro-1H-pyrido[3,4-b]indol-1-yl)pyrimidin-2-yl)-1-oxa-8-azaspiro[4.5]decan-3-yl)methyl)-1-oxo-1,3,5,5a,6,7,8,9-octahydro-2H-pyrazino[1′,2′:4,5][1,4]oxazino[2,3-e]isoindol-2-yl)piperidine-2,6-dione], for which the DC50 on ER is below 10 nM. Besides, in experiment [1], the IC50 lay in the range of 1 to 10 nM.

Turning to `C[C@@H]1Cc2c([nH]c3ccccc23)[C@@H](c2ccc(N3CCC4(CC3)CC(CN3CCN5c6ccc7c(c6OC[C@H]5C3)CN(C3CCC(=O)NC3=O)C7=O)C4)nc2)N1CC(F)F` (stereo partly drawn) [Compound B169, 3-((R)-7-((7-(5-((1R,3R)-2-(2,2-difluoroethyl)-3-methyl-2,3,4,9-tetrahydro-1H-pyrido[3,4-b]indol-1-yl)pyridin-2-yl)-7-azaspiro[3.5]nonan-2-yl)methyl)-1-oxo-1,3,5,5a,6,7,8,9-octahydro-2H-pyrazino[1′,2′:4,5][1,4]oxazino[2,3-e]isoindol-2-yl)piperidine-2,6-dione], the DC50 on ER is above 100 nM. For the same molecule, the IC50 in experiment [1] was 1 to 10 nM.

For the molecule `COc1cc(N2CCC3(CCN(C(=O)CN4Cc5cc6c(cc5C4)C(=O)N(C4CCC(=O)NC4=O)C6=O)CC3)CC2)ccc1[C@@H]1c2[nH]c3ccccc3c2C[C@@H](C)N1CC(C)(C)F` (stereo partly drawn) [Compound B170, 2-(2,6-dioxopiperidin-3-yl)-6-(2-(9-(4-((1R,3R)-2-(2-fluoro-2-methylpropyl)-3-methyl-2,3,4,9-tetrahydro-1H-pyrido[3,4-b]indol-1-yl)-3-methoxyphenyl)-3,9-diazaspiro[5.5]undecan-3-yl)-2-oxoethyl)-6,7-dihydropyrrolo[3,4-f]isoindole-1,3(2H,5H)-dione], the DC50 on ER is above 100 nM. Besides, the IC50 in experiment [1] fell in the range of 1 to 10 nM.

In the case of `C[C@@H]1Cc2c([nH]c3ccccc23)[C@@H](c2cnc(N3CCC4(CC3)CC(CN3CCN5c6cc7c(cc6OC[C@@H]5C3)C(=O)N(C3CCC(=O)NC3=O)C7)CO4)nc2)N1CC(F)(F)CO` (stereo partly drawn) [Compound B171, 3-((4aS)-3-((8-(5-((1R,3R)-2-(2,2-difluoro-3-hydroxypropyl)-3-methyl-2,3,4,9-tetrahydro-1H-pyrido[3,4-b]indol-1-yl)pyrimidin-2-yl)-1-oxa-8-azaspiro[4.5]dccan-3-yl)methyl)-8-oxo-1,2,3,4,4a,5,8,10-octahydro-9H-pyrazino[1′,2′:4,5][1,4]oxazino[2,3-f]isoindol-9-yl)piperidine-2,6-dione], the DC50 at ER is below 10 nM. The IC50 in experiment [1] is above 10 nM.

For `C[C@@H]1Cc2c([nH]c3ccccc23)[C@@H](c2cnc(N3CCC4(CC3)CC(CN3CCN5c6ccc7c(c6OC[C@H]5C3)CN(C3CCC(=O)NC3=O)C7=O)CO4)nc2)N1CC(F)(F)CO` (stereo partly drawn) [Compound B172, 3-((5aR)-7-((8-(5-((1R,3R)-2-(2,2-difluoro-3-hydroxypropyl)-3-methyl-2,3,4,9-tetrahydro-1H-pyrido[3,4-b]indol-1-yl)pyrimidin-2-yl)-1-oxa-8-azaspiro[4.5]decan-3-yl)methyl)-1-oxo-1,3,5,5a,6,7,8,9-octahydro-2H-pyrazino[1′,2′:4,5][1,4]oxazino[2,3-e]isoindol-2-yl)piperidine-2,6-dione], on ER, the DC50 is above 100 nM. Moreover, the IC50 in experiment [1] was below 1 nM.

Turning to `C[C@@H]1Cc2c([nH]c3ccccc23)[C@@H](c2c(F)cc(N3CCC(CN4CCN5c6c(ccc7c6CN(C6CCC(=O)NC6=O)C7=O)OC[C@@H]5C4)CC3)cc2F)N1CC(F)F` (stereo partly drawn) [Compound B173, 3-((S)-9-((1-(4-((1R,3R)-2-(2,2-difluoroethyl)-3-methyl-2,3,4,9-tetrahydro-1H-pyrido[3,4-b]indol-1-yl)-3,5-difluorophenyl)piperidin-4-yl)methyl)-3-oxo-1,3,7,7a,8,9,10,11-octahydro-2H-pyrazino[1′,2′:4,5][1,4]oxazino[3,2-e]isoindol-2-yl)piperidine-2,6-dione], the DC50 at ER is above 100 nM. Further, the IC50 in experiment [1] was below 1 nM.

For the molecule `C[C@@H]1Cc2c([nH]c3ccccc23)[C@@H](c2c(F)cc(N3CCC4(CC3)CN(C(=O)CN3CCN5c6ccc7c(c6OC[C@H]5C3)CN(C3CCC(=O)NC3=O)C7=O)C4)cc2F)N1CC(F)F` (stereo partly drawn) [Compound B174, 3-((R)-7-(2-(7-(4-((1R,3R)-2-(2,2-difluoroethyl)-3-methyl-2,3,4,9-tetrahydro-1H-pyrido[3,4-b]indol-1-yl)-3,5-difluorophenyl)-2,7-diazaspiro[3.5]nonan-2-yl)-2-oxoethyl)-1-oxo-1,3,5,5a,6,7,8,9-octahydro-2H-pyrazino[1′,2′:4,5][1,4]oxazino[2,3-e]isoindol-2-yl)piperidine-2,6-dione], the DC50 on ER was below 10 nM. Also, the IC50 in experiment [1] was below 1 nM.

On to `C[C@@H]1Cc2c([nH]c3ccccc23)[C@@H](c2cnc(N3CCC4(CC3)CN(CC(=O)N3CCN5c6ccc7c(c6OC[C@H]5C3)CN(C3CCC(=O)NC3=O)C7=O)C4)nc2)N1CC(F)(F)F` (stereo partly drawn) [Compound B175, 3-((R)-7-(2-(7-(5-((1R,3R)-3-methyl-2-(2,2,2-trifluoroethyl)-2,3,4,9-tetrahydro-1H-pyrido[3,4-b]indol-1-yl)pyrimidin-2-yl)-2,7-diazaspiro[3.5]nonan-2-yl)acetyl)-1-oxo-1,3,5,5a,6,7,8,9-octahydro-2H-pyrazino[1′,2′:4,5][1,4]oxazino[2,3-e]isoindol-2-yl)piperidine-2,6-dione], for which the DC50 at ER is below 10 nM. Moreover, the IC50 in experiment [1] lay in the range of 1 to 10 nM.

The values are drawn from patent publication US20260007681A1, “INDOLE DERIVATIVES AS ESTROGEN RECEPTOR DEGRADERS” (REGENTS OF THE UNIVERSITY OF MICHIGAN, priority 2022, published 2026).
